Laboratory results reported in US7189746B2, “Methods for promoting wound healing” (GliaMed, Inc., priority 2002, dated 2007).
“Also recorded” adds a separate entry of the source.

How the values were obtained:
[1] = test system: nerve fibers of injured skin; experiment: Reinnervation and remyelination of healing skin (MBP and neuron-specific β-tubulin staining); type: in vivo, mouse; conditions: 8 days of treatment after biopsy
Text: FIG. 6 illustrates that GM-284 induces rapid reinnervation of injured skin. (A) The inventor examined innervation of surgically damaged skin (biopsy) following 8 days of treatment with either GM-284 or vehicle. The skin sections were stained with an antibody that recognizes myelin basic protein (MBP). […] In contrast, healing skin which had been treated with vehicle alone still had no myelinated fibers, nor did the Langerhans cells appear to have any organization relative to the epidermis (right panel). (B) Unmyelinated fibers also innervate the skin, where the fibers extend into the epidermis. […] No such fibers were found in the vehicle-treated controls.
As shown above, GM-284 induces rapid healing of wounds; it does so, in part, by influencing the proliferation of cells within the dermis and epidermis. In addition, this compound has profound effects on the regeneration of peripheral nerves. The inventor has previously shown that, following crushing-nerve injury, GM-284 enhances nerve regeneration, acting on both the axon and the Schwann cell (data not shown). To investigate whether GM-284 also enhances sensory-nerve regeneration into skin following wounding, the inventor examined innervation of skin biopsies after 8 days of treatment with either GM-284 or vehicle. […]

surgical wounds = experiment: Healing of surgical wounds under daily gavage (systemic treatment); type: in vivo, mice
Text: During these studies, the inventor serendipitously observed that the surgical wounds of animals treated systemically with GM-284 appeared dramatically different from those of either vehicle- or FK506-treated mice. […] Given the biochemical properties of GM-284, and the clinical uses of FK506 as a topical medication, the inventor investigated the ability of GM-284 to act as a healing accelerant when applied topically to full-thickness skin biopsies in mice.
These studies required surgical exposure of the right lower quadrant of all study animals. Following exposure of the sciatic nerve from the sciatic notch to the knee, and manipulation of the nerve, the muscle and overlaying skin were closed with suture material. Each animal was subsequently treated with a daily gavage of either GM-284 (5 mg/kg), FK506 (5 mg/kg), or methylcellulose vehicle alone.

epidermis of intact skin = experiment: Topical treatment of intact shaved skin, with recovery period; type: in vivo
Text: Either GM-284 or vehicle was applied to the dorsal skin on both sides of the animals, daily for 2 weeks. At that time, a 5-mm biopsy was taken from only one side, and all treatment was withheld. After an additional 2-week recovery period, a 5-mm biopsy was taken from the contralateral, intact side. […] 20×magnification
In order to test these effects, the inventor shaved the dorsal fur from over the hindquarters, bilaterally, and tattooed ˜5-mm circles on the skin. Either GM-284 or vehicle was applied daily, to both sides of the animals, for 2 weeks. After that time, a 5-mm biopsy was taken from only one side of each animal, and all treatment was withheld. After an additional 2-week “recovery period”, a 5-mm biopsy was taken from the intact side of each animal.

facial nerve = experiment: Whisker movement after unilateral facial nerve compression; type: in vivo; conditions: rats, versus control
recombinant FKBP52 = target: T1, recombinant FKBP52 (Homo sapiens, UniProt Q02790); experiment: Binding affinity for recombinant FKBP52 by solution-phase tryptophan fluorescence (QTFS); conditions: read-out: disassociation constant (kd), binding affinity for recombinant FKBP52
T1 sequence (Q02790 1-459): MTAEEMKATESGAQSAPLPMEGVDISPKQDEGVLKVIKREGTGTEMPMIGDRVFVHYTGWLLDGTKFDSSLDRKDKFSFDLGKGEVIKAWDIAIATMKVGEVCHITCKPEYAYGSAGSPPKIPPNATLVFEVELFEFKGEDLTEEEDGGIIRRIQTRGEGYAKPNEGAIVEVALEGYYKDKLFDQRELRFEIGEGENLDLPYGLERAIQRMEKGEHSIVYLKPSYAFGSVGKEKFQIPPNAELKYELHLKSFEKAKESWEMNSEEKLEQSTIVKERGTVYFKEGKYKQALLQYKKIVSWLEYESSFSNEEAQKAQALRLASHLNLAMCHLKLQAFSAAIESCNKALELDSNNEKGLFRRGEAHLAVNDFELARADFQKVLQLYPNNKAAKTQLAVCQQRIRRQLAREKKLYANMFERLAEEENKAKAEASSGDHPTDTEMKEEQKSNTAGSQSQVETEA
Text: Accordingly, in one embodiment of the present invention, the immunophilin ligand is FK506 or an FK506 analogue or derivative. As used herein, an “FK506 derivative” is a chemical substance derived from FK506, either directly or by modification, truncation, or partial substitution. FK506 and its analogues and derivatives may be produced synthetically. The FK506 derivative for use in the present invention may be nonimmunosuppressive. In a preferred embodiment of the present invention, the nonimmunosuppressive FK506 derivative is GM-284. This novel compound is a small molecule that effects transcriptional change in Schwann cells, and promotes wound healing and regeneration of epithelial tissue and nervous tissue, as described below. […] The structure of GM-284 is depicted in FIG. 9.

[2] = test system: hair follicles and sebaceous glands; experiment: Histology of adenexal structures and sebaceous cell volume after skin biopsy and topical treatment; type: in vivo, mice; conditions: topical daily, 8 days
Description: (A) Eight days following full-thickness skin biopsies and daily treatment with either vehicle or a 1 μM solution of GM-284, the original biopsy sites were rebiopsied and stained with hemotoxylin and eosin. […] Micrographs from the two treatment groups were scanned, and the volume of sebaceous cells was measured in voxels (n=>300 cells per treatment group). The resulting data were binned by 3000-voxel increments.
Using the topical-application-following-skin-biopsy paradigm detailed above, the lateral aspects of the original lesions were rebiopsied 8 days after the original lesions. The tissues were immersion-fixed, dehydrated through step gradients of alcohols, stained with hemotoxylin and eosin, and mounted for microscopic analysis, all following standard protocols. It is known that skin wounds in rodents heal inwards, from the perimeter, converging at a central point (Cohen, Stress and wound healing. Acta Anat. (Basel), 103:134–41, 1979). Therefore, the lateral edges of the original lesions were selected for analysis because these areas of tissue had the greatest opportunity to regenerate under the experimental conditions.
The volumes of the cells of the sebaceous glands were determined by scanning micrographs taken from animals treated with either GM-284 or vehicle for 8 days, and measuring cell size with the NIH Image program. […] There was an absence of smaller sebaceous cells in the GM-284 treatment group, and an absence of larger cells in the vehicle-treated group. […] Thus, given the cellular expansion in all three of these dermal compartments, it is likely that GM-284 acts at the level of the common stem cell.

peripheral nerves = experiment: Peripheral nerve regeneration after mechanical transection; type: in vivo; conditions: mechanical transection of peripheral nerves; earlier studies of the inventor
epidermis = experiment: Epidermal thickness after full-thickness skin biopsy and topical treatment; type: in vivo, mice; conditions: topical daily for 8 days in DMSO-based vehicle, rebiopsy, H&E
Description: FIG. 4 illustrates that topical treatment with GM-284 increases epidermal thickness in vivo. Eight days after full-thickness skin biopsies and daily treatment with vehicle, FK506, or GM-284, the original biopsy sites were rebiopsied and stained with hemotoxylin and eosin.
To examine this possibility, 5-mm, full-skin thickness biopsies were taken from the hindquarters of both male and female ICR retired breeders. The wounds were treated daily, for 8 days, with topical administration of either the DMSO-based vehicle, or FK506 or GM-284 in the vehicle. Thereafter, the original biopsy site was rebiopsied. […] In contrast, the epidermis of the GM-284-treated animals was much thicker, and appeared to be much more cellular, than the epidermis of animals under the other two conditions (FIG. 4, panel c).

[3] = test system: human-foreskin keratinocytes; experiment: Proliferation of cultured human-foreskin keratinocytes; type: cell-based
Description: Human keratinocytes were thawed, then either grown in the presence of increasing concentrations of GM-284, or grown in 5 μM FeSO4 as a positive control.
As detailed above, keratinocyte proliferation is influenced by a number of factors, including innervation (Hsieh and Lin, Modulation of keratinocyte proliferation by skin innervation. J. Invest. Dermatol., 113:579–86, 1999) and growth-factor treatment (Castagnino et al., Neu differentiation factor/heregulin induction by hepatocyte and keratinocyte growth factors. Oncogene, 19:640–48, 2000; and reviewed by Werner and Smola, Paracrine regulation of keratinocyte proliferation and differentiation. Trends Cell Biol., 11: 143–46, 2001). Thus, by culturing human-foreskin keratinocytes with increasing concentrations of GM-284, the inventor investigated the possibility that GM-284 was able to influence keratinocyte growth. […] This type of drug-dependent inhibition is consistent with the inventor's previous observation that a higher concentration of GM-284 blocks gene expression that is induced at a lower drug concentration (data not shown).

5-mm skin biopsies = experiment: Closure of 5-mm skin biopsy wounds under daily topical treatment; type: in vivo, mice
Description: The foregoing results also raised the possibility that GM-284 might show similar effects if administered topically, directly to the surgical site. To investigate this possibility, 10 retired breeders—5 male mice and 5 female mice—were prepared for surgery, and were subjected to 5-mm skin biopsies using a disposable biopsy punch. After achieving hemostasis, the wounds were treated immediately with topical application of either GM-284 or vehicle, or received no treatment at all. The treatment was repeated daily.
During the experimental period, the wounds were photographed daily, and the photographs were scanned for […]. The open area of each wound was quantified using an image-analysis program, NIH Image.

neuregulin-α = experiment: Neuregulin-α expression in keratinocytes of unwounded skin in situ; type: in vivo
Text: FIG. 8 illustrates that GM-284 alters neuregulin gene expression. […] As expected, unwounded, vehicle-treated keratinocytes strongly express neuregulin-α (top panel).
As expected, unwounded, vehicle-treated keratinocytes strongly expressed neuregulin-α (FIG. 8, top panel).

CCC(C)(C)C(=O)C(=O)N1CCC[C@H]1c1nnc([C@@H]2CCCN2C(=O)C(=O)C(C)(C)CC)o1 [GM-284]
regeneration of myelinated (MBP-positive) fibers in injured skin (FIG. 6A) [1]: regained its pre-injury histology, with new, myelinated fibers running parallel to the epidermis | regeneration of unmyelinated fibers into the epidermis (FIG. 6B) [1]: promotes regeneration of naked axons into the epidermis | appearance and closure of surgical wounds (surgical wounds; daily gavage 5 mg/kg, skin and muscle entered, blinded observer): less erythemia and more rapid closure | rate of wound healing versus controls (surgical wounds; mice treated systemically, controls vehicle or FK506): healed at approximately twice the rate as the controls | healing of surgical wounds, only the skin entered (surgical wounds; muscle and overlying fascia left intact): same improved healing characteristics | epidermal hypertrophy after recovery period (FIG. 7, lower) (epidermis of intact skin; 2 weeks treatment, then 2 weeks without treatment): completely reversed | epidermal thickness of intact skin (FIG. 7, top) (epidermis of intact skin; topical daily for 2 weeks): resulted in epidermal hypertrophy | restoration of whisker movement (facial nerve): more rapidly restore whisker movement compared to control | Kd (recombinant FKBP52): 139 nM | number of hair follicles or sebaceous glands ([2]; 1 μM solution): no net increase in the number of hair follicles | hair follicle size and cellularity (FIG. 5A) ([2]; 1 μM solution, versus vehicle): large increase in the width and cellularity of the basal aspects of the hair follicles; also recorded: overall increase in hair-follicle size | sebaceous gland size and cell number (FIG. 5A) ([2]; 1 μM solution, versus vehicle): much rounder, larger, and fuller than those of the controls; also recorded: increase in the size of sebaceous glands | sebaceous cell volume, binned by 3000-voxel increments (FIG. 5B) ([2]; >300 cells per group, versus vehicle): marked shift to the right; also recorded: absence of cells smaller than 3000 voxels | axonal regeneration and myelination after nerve transection (peripheral nerves): enhances axonal regeneration and induces hypermyelination | epidermal thickness versus vehicle (FIG. 4) (epidermis): marked increase in epidermal thickness; also recorded: much thicker | increase in rate of keratinocyte proliferation ([3]; 1 μM, after 14 days of treatment): more than 150% | proliferative index of keratinocytes (FIG. 3) ([3]; 1 μM, after first passage and reseeding): doubling of the proliferative index | keratinocyte growth rate at 10 μM compared with 1 μM ([3]; 10 μM): completely ablated the pro-proliferative activity | granulation of wound edges (5-mm skin biopsies; topical daily, D3 and D9): better granulated than the controls | closure rate, open wound area by NIH Image (FIG. 2) (5-mm skin biopsies; topical daily, day 5): large difference in the closure rates | open wound size versus control groups, NIH Image (FIG. 2) (5-mm skin biopsies; topical daily, day 9): approximately one-third the size of those of the control groups | open wound size versus control groups, NIH Image (FIG. 2) (5-mm skin biopsies; topical daily, day 9, listed as GM284): approximately as completely healed as that of the two control groups | rate of wound closure, open wound area by NIH Image (5-mm skin biopsies; topical daily, third treatment day): closed approximately twice as fast as the control groups | wound closure versus control groups (FIG. 1) (5-mm skin biopsies; topical, once daily, day 3): showed improvement by 3 days; also recorded: significantly more closed than the control groups | wound closure (FIG. 1) (5-mm skin biopsies; topical, once daily, day 9): virtually closed by the ninth day | keratinocyte neuregulin-α expression (FIG. 8) (neuregulin-α; 2 weeks of topical treatment, unwounded skin): completely downregulated neuregulin-α expression | keratinocyte neuregulin-α expression after recovery (neuregulin-α; skin allowed to recover for 2 weeks, data not shown): keratinocyte expression of neuregulin-α was restored
